Measurements as given in ChEMBL document CHEMBL1201862, “PubChem BioAssay data set” (2004).
Activity calls are given as the source filed them.

Key:
[1] = molecular target: Mitogen-activated protein kinase 9 (Homo sapiens, UniProt P45984); type: functional;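 note: value from a kinome panel profiling assay, MAPK9 panel entry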
[2] = molecular target: Serine/threonine-protein kinase pim-1 (Homo sapiens, UniProt P11309); type: functional
[3] = molecular target: cAMP-dependent protein kinase catalytic subunit PRKX (Homo sapiens, UniProt P51817); type: functional
[4] = molecular target: Dual specificity tyrosine-phosphorylation-regulated kinase 1B (Homo sapiens, UniProt Q9Y463); assay: Navigating the Kinome. Panel member name: DYRK1B; type: functional
Activin receptor type-1 = Activin receptor type-1 (Homo sapiens, UniProt Q04771); assay: Navigating the Kinome. Panel member name: ACVR1; type: functional
[5] = molecular target: ALK tyrosine kinase receptor (Homo sapiens, UniProt Q9UM73); type: functional;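 note: ALK tested as one member of a kinase panel screen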
[6] = molecular target: BDNF/NT-3 growth factors receptor (Homo sapiens, UniProt Q16620); type: functional;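 note: NTRK2 measured as one member of a broad kinome-wide kinase profiling panel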
[7] = molecular target: 5'-AMP-activated protein kinase catalytic subunit alpha-1 (Homo sapiens, UniProt Q13131); type: functional
[8] = molecular target: Insulin-like growth factor 1 receptor (Homo sapiens, UniProt P08069); assay: Navigating the Kinome. Panel member name: IGF1R; type: functional
[9] = molecular target: Vascular endothelial growth factor receptor 2 (Homo sapiens, UniProt P35968); type: functional
[10] = molecular target: Tyrosine-protein kinase Fyn (Homo sapiens, UniProt P06241); type: functional
[11] = molecular target: Serine/threonine-protein kinase TAO1 (Homo sapiens, UniProt Q7L7X3); type: functional
[12] = molecular target: Mitogen-activated protein kinase kinase kinase kinase 4 (Homo sapiens, UniProt O95819); type: functional
LIM domain kinase 1 = LIM domain kinase 1 (Homo sapiens, UniProt P53667); assay: Navigating the Kinome. Panel member name: LIMK1; type: functional
[13] = molecular target: Dual specificity tyrosine-phosphorylation-regulated kinase 1A (Homo sapiens, UniProt Q13627); type: functional;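 note: measured against DYRK1A as one member of a broad kinome profiling panel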
[14] = molecular target: Dual specificity protein kinase CLK4 (Homo sapiens, UniProt Q9HAZ1); type: functional
[15] = molecular target: Glycogen synthase kinase-3 beta (Homo sapiens, UniProt P49841); type: functional;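 note: value comes from a broad kinome profiling panel, with GSK3B as the panel member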
[16] = molecular target: Cyclin-dependent kinase 7 (Homo sapiens, UniProt P50613); type: functional;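 note: value comes from a kinome-wide kinase profiling panel in which CDK7 is one member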
[17] = molecular target: Serine/threonine-protein kinase TBK1 (Homo sapiens, UniProt Q9UHD2); assay: Navigating the Kinome. Panel member name: TBK1; type: functional
[18] = molecular target: Dual specificity mitogen-activated protein kinase kinase 1 (Homo sapiens, UniProt Q02750); assay: Navigating the Kinome. Panel member name: MAP2K1; type: functional
[19] = molecular target: Calcium/calmodulin-dependent protein kinase type II subunit alpha (Homo sapiens, UniProt Q9UQM7); assay: Navigating the Kinome. Panel member name: CAMK2A; type: functional
Focal adhesion kinase 1 = Focal adhesion kinase 1 (Homo sapiens, UniProt Q05397); type: functional;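 note: measured as one member of a kinome panel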
[20] = molecular target: Fibroblast growth factor receptor 1 (Homo sapiens, UniProt P11362); type: functional
[21] = molecular target: cAMP-dependent protein kinase catalytic subunit alpha (Homo sapiens, UniProt P17612); type: functional
[22] = molecular target: Cyclin-dependent kinase 5 (Homo sapiens, UniProt Q00535); type: functional;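 note: CDK5 measured as one member of a kinase profiling panel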
[23] = molecular target: Macrophage colony-stimulating factor 1 receptor (Homo sapiens, UniProt P07333); type: functional;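 note: value comes from the Navigating the Kinome screening panel, CSF1R member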
[24] = molecular target: Dual specificity protein kinase CLK2 (Homo sapiens, UniProt P49760); type: functional
[25] = molecular target: Glycogen synthase kinase-3 alpha (Homo sapiens, UniProt P49840); type: functional;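 note: GSK3A result taken from a broad kinome-wide kinase panel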
Aurora kinase A = Aurora kinase A (Homo sapiens, UniProt O14965); type: functional;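 note: value from the Navigating the Kinome kinase panel profiling, panel entry STK6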
[26] = molecular target: Tyrosine-protein kinase JAK3 (Homo sapiens, UniProt P52333); type: functional
[27] = molecular target: Casein kinase I isoform alpha (Homo sapiens, UniProt P48729); type: functional
[28] = molecular target: Platelet-derived growth factor receptor alpha (Homo sapiens, UniProt P16234); assay: Navigating the Kinome. Panel member name: PDGFRA; type: functional
[29] = molecular target: Serine/threonine-protein kinase Chk1 (Homo sapiens, UniProt O14757); type: functional;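 note: measured as one member of a kinome-wide kinase profiling panel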
[30] = molecular target: Tyrosine-protein kinase Lck (Homo sapiens, UniProt P06239); type: functional;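 note: lck was assayed as one member of a kinase panel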
[31] = molecular target: Cyclin-dependent kinase 9 (Homo sapiens, UniProt P50750); type: functional;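 note: value from the CDK9 entry of a kinome-spanning kinase panel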
[32] = molecular target: Rho-associated protein kinase 1 (Homo sapiens, UniProt Q13464); type: functional;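 note: measured within a broad kinome-wide panel profiling many kinases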
[33] = molecular target: Tyrosine-protein kinase receptor TYRO3 (Homo sapiens, UniProt Q06418); type: functional;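 note: TYRO3 value obtained as one member of a kinome-wide profiling panel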
[34] = molecular target: Proto-oncogene tyrosine-protein kinase receptor Ret (Homo sapiens, UniProt P07949); type: functional;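 note: measured within a kinome-wide profiling panel, RET as the panel member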
[35] = molecular target: Serine/threonine-protein kinase PAK 4 (Homo sapiens, UniProt O96013); type: functional;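 note: value obtained within a kinome profiling panel in which PAK4 was one of the panel members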
[36] = molecular target: Tyrosine-protein kinase ABL1 (Homo sapiens, UniProt P00519); type: functional
[37] = molecular target: Tyrosine-protein kinase JAK2 (Homo sapiens, UniProt O60674); type: functional;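 note: JAK2 tested as one member of a kinase panel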
[38] = molecular target: Serine/threonine-protein kinase D3 (Homo sapiens, UniProt O94806); type: functional;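 note: determined within a kinase panel screen, with PRKCN as the panel member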
[39] = molecular target: Leukocyte tyrosine kinase receptor (Homo sapiens, UniProt P29376); assay: Navigating the Kinome. Panel member name: LTK; type: functional
[40] = molecular target: Protein kinase C theta type (Homo sapiens, UniProt Q04759); assay: Navigating the Kinome. Panel member name: PRKCQ; type: functional
Activated CDC42 kinase 1 = Activated CDC42 kinase 1 (Homo sapiens, UniProt Q07912); assay: Navigating the Kinome. Panel member name: ACK1; type: functional
[41] = molecular target: Dual specificity mitogen-activated protein kinase kinase 2 (Homo sapiens, UniProt P36507); assay: Navigating the Kinome. Panel member name: MAP2K2; type: functional
[42] = molecular target: Death-associated protein kinase 3 (Homo sapiens, UniProt O43293); type: functional;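 note: measured as one member of a kinome-wide profiling panel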
[43] = molecular target: Cyclin-dependent kinase 8 (Homo sapiens, UniProt P49336); assay: Navigating the Kinome. Panel member name: CDK8; type: functional
[44] = molecular target: Leucine-rich repeat serine/threonine-protein kinase 2 (Homo sapiens, UniProt Q5S007); type: functional;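 note: value from a broad kinome-wide panel profiling study in which LRRK2 was one of the kinases tested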
[45] = molecular target: Mitogen-activated protein kinase kinase kinase kinase 2 (Homo sapiens, UniProt Q12851); type: functional;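 note: measured as one member of a kinome-wide kinase panel, with MAP4K2 as the panel entry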
Aurora kinase B = Aurora kinase B (Homo sapiens, UniProt Q96GD4); type: functional
[46] = molecular target: Macrophage-stimulating protein receptor (Homo sapiens, UniProt Q04912); assay: Navigating the Kinome. Panel member name: MST1R; type: functional
[47] = molecular target: Inhibitor of nuclear factor kappa-B kinase subunit epsilon (Homo sapiens, UniProt Q14164); assay: Navigating the Kinome. Panel member name: IKBKE; type: functional
[48] = molecular target: Vascular endothelial growth factor receptor 1 (Homo sapiens, UniProt P17948); type: functional;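 note: measured within a kinome-wide profiling panel, FLT1 as the panel member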
[49] = molecular target: Mitogen-activated protein kinase 8 (Homo sapiens, UniProt P45983); type: functional;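 note: value comes from one member of a kinome-wide kinase profiling panel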
INS1 = assay: INS-1E survival protection against cytokine death – cell-based, luminescence, retest, dose response (AID 449756); type: functional; conditions: Rattus norvegicus;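 note: cell death triggered by IL-1 beta plus TNF-alpha plus IFN-gamma mixture; protective hits raise ATP signal compared with cytokine alone wells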
Streptokinase A = molecular target: T1, Streptokinase A (Streptococcus pyogenes serotype M1, UniProt P10520); assay: viability-normalized secreted streptokinase activity reduction – plasminogen activation absorbance, OD405, dose response (AID 1914); type: functional, Streptococcus pyogenes M1 GAS;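 note: secreted streptokinase activity via plasminogen activation per viability signal from cell pellet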
T1 sequence (P10520 whole entry): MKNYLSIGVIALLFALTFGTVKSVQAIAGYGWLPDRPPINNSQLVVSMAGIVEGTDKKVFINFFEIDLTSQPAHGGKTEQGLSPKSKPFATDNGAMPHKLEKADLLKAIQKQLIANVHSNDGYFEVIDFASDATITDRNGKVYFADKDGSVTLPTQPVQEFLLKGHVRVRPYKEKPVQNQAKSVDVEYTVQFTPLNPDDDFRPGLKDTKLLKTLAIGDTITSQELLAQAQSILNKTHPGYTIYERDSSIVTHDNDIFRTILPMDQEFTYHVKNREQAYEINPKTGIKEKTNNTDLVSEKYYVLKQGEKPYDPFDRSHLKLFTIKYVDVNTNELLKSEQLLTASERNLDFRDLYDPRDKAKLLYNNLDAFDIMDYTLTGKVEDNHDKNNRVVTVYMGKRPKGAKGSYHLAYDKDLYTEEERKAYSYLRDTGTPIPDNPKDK

[50] = THP-1 cell cytotoxicity, cytotoxicity control, set 4 (AID 504911); type: functional; conditions: Mycobacterium tuberculosis
[51] = Vero cell cytotoxicity, dose response, cytotoxicity control for M. tuberculosis growth inhibitor project, Vero cells, purified and synthesized compounds, set 5 (AID 504909); type: functional; conditions: Mycobacterium tuberculosis
Streptococcus = assay: GAS UMAA2166 growth inhibition – luminescence, BacTiterGlo, counter-screen for streptokinase expression inhibitor project, dose response (AID 1915); type: functional, organism-based;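 note: potency for reduction of bacterial viability or growth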
[52] = HepG2 cell cytotoxicity, cytotoxicity control, set 4 (AID 504910); type: functional; conditions: Mycobacterium tuberculosis
[53] = tested on: Streptococcus sp. 'group A'; assay: Streptococcus pyogenes SK(-)GAS viability under kanamycin – luminescence, BacTiterGlo, confirmation, counter-screen for streptokinase expression inhibitor project, dose response (AID 1900); type: functional, organism-based

Leukocyte tyrosine kinase receptor, sequence (P29376 whole entry): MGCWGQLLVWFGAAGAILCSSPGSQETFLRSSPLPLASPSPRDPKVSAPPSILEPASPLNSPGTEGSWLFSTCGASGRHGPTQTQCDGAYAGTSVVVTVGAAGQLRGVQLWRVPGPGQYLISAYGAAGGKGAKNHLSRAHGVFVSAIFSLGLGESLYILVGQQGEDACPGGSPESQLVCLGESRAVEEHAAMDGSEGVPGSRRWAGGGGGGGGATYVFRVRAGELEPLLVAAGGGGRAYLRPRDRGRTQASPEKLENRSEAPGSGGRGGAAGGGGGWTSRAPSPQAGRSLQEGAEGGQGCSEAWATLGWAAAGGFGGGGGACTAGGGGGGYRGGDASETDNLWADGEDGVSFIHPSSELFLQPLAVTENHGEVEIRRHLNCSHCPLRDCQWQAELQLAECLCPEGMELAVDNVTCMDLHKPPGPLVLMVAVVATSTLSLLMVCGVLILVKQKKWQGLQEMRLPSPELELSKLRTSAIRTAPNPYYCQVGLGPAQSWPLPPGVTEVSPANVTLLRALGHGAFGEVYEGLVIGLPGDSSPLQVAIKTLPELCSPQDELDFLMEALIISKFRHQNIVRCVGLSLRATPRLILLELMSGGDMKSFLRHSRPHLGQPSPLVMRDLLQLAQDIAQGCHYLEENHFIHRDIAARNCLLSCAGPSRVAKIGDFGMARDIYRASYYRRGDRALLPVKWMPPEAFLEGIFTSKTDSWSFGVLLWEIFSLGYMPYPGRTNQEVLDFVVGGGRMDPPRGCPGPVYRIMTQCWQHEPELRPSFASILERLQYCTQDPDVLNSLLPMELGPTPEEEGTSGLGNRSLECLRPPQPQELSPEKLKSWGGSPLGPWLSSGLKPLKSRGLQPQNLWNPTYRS
Mitogen-activated protein kinase kinase kinase kinase 4, sequence (O95819 whole entry, the tested form may be a part): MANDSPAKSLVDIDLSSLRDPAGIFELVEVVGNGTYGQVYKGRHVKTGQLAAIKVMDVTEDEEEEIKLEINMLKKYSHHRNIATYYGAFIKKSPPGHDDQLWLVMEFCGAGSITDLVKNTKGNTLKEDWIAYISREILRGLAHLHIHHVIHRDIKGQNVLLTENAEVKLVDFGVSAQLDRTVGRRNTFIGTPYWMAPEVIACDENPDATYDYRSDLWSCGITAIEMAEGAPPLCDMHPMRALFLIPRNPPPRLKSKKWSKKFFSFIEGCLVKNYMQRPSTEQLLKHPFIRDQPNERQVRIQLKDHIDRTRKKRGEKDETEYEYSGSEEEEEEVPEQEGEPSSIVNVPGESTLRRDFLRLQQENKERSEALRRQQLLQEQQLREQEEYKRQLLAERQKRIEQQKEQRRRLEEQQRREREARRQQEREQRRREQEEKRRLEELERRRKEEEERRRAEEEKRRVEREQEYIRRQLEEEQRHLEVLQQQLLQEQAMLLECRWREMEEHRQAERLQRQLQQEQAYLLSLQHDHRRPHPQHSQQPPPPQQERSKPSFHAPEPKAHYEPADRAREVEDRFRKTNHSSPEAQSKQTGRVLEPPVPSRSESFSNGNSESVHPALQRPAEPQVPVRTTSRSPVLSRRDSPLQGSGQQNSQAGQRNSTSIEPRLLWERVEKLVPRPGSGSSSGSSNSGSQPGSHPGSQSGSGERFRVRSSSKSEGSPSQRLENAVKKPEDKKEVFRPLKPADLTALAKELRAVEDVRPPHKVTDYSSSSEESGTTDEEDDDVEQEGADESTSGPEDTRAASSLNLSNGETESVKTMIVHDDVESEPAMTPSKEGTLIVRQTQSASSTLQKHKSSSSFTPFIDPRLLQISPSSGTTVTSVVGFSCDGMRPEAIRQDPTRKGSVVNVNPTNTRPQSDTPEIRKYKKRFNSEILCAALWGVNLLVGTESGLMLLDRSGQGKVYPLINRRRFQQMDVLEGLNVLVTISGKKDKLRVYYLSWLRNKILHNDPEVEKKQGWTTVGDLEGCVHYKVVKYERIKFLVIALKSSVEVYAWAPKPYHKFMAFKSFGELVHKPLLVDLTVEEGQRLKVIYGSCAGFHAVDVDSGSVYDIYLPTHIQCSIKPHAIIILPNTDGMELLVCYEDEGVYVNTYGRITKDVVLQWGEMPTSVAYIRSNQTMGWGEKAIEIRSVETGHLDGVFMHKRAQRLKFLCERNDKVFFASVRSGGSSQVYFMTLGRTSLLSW
Calcium/calmodulin-dependent protein kinase type II subunit alpha, sequence (Q9UQM7 whole entry): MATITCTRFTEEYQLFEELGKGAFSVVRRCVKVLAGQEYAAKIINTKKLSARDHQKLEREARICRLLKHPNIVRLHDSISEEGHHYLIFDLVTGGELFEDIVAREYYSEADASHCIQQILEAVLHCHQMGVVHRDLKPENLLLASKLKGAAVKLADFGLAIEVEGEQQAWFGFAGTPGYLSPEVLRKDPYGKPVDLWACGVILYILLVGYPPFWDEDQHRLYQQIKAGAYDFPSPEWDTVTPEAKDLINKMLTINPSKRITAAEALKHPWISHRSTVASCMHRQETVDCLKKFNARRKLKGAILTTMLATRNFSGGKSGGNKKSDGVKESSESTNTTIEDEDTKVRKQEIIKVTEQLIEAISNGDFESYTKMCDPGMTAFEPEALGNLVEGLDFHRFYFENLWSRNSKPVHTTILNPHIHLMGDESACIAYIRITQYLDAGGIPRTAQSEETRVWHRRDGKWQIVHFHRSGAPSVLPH
Tyrosine-protein kinase ABL1, sequence (P00519 whole entry): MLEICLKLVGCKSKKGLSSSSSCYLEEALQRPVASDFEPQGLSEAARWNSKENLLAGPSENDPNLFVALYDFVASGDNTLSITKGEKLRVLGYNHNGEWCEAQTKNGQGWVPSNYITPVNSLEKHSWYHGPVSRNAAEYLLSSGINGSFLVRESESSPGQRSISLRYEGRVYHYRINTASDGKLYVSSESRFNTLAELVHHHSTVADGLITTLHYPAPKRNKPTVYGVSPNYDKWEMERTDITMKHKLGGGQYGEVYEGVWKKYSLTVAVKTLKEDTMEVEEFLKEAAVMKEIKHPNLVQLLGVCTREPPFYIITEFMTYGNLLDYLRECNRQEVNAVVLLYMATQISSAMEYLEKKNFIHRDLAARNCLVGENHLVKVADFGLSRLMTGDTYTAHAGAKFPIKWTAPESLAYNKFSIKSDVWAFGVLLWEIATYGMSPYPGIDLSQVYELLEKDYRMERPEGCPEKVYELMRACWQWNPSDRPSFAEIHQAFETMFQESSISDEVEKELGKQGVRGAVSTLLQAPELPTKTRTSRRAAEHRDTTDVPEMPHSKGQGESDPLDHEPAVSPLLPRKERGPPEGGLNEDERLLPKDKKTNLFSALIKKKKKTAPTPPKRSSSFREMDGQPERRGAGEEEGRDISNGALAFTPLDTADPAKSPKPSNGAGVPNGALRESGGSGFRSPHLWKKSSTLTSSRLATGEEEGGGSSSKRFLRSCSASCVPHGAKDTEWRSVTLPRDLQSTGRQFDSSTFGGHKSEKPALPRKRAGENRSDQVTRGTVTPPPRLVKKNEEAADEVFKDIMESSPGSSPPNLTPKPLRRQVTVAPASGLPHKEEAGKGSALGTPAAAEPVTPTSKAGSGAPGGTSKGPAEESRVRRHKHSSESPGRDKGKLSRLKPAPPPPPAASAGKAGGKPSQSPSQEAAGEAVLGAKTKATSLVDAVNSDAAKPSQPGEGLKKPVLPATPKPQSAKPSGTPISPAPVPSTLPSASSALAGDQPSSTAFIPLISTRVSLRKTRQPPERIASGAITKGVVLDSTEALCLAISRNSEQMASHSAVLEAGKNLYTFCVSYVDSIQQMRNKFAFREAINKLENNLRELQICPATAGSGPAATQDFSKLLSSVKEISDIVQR
Activated CDC42 kinase 1, sequence (Q07912 whole entry): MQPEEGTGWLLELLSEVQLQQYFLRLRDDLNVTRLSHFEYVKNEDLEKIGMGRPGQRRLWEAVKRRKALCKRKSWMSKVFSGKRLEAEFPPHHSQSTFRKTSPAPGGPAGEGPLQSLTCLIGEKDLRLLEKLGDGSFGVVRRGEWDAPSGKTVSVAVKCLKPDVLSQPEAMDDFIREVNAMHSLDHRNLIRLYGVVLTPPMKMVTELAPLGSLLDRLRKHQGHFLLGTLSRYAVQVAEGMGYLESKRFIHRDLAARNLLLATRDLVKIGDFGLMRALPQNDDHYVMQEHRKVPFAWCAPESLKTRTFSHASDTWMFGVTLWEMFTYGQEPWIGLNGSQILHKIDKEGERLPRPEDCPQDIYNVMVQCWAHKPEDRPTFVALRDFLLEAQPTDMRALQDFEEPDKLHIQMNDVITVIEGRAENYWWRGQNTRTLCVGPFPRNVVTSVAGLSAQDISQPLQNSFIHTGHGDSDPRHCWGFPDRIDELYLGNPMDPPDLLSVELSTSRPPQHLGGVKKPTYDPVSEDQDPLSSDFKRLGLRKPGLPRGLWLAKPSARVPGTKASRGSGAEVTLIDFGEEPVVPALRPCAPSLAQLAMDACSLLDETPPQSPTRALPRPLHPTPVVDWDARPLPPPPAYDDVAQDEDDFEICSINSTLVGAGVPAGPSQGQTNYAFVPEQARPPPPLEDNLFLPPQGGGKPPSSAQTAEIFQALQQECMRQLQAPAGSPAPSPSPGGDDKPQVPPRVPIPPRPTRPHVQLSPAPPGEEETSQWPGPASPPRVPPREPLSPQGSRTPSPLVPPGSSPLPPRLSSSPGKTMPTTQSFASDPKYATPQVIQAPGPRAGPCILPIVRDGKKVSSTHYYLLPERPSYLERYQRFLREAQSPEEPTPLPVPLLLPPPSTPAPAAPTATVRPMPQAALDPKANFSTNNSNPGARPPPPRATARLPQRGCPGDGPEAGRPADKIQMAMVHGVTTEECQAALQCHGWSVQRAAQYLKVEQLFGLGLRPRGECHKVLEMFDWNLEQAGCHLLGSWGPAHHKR
Aurora kinase B, sequence (Q96GD4 whole entry): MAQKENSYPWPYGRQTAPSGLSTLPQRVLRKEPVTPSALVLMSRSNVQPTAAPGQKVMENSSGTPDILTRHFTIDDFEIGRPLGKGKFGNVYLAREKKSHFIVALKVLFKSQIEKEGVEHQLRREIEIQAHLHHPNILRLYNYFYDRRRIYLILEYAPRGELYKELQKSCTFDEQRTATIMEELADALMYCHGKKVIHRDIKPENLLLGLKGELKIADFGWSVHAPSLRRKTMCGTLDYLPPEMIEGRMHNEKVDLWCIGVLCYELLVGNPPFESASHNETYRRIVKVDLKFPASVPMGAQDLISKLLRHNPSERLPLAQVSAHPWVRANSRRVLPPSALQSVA

Cc1n[nH]c2ccc(-c3cccnc3)cc12
active: Ki [1] 20 µM | Ki [2] 7.94 µM | Ki [3] 6.31 µM | Ki [4] 0.0126 µM | Ki (Activin receptor type-1) 3.98 µM | Ki [5] 12.6 µM | Ki [6] 79.4 µM | Ki [7] 20 µM | Ki [8] 39.8 µM | Ki [9] 6.31 µM | Ki [10] 79.4 µM | Ki [11] 50.1 µM | Ki [12] 2.51 µM | Ki (LIM domain kinase 1) 79.4 µM | Ki [13] 0.0398 µM | Ki [14] 0.002 µM | Ki [15] 3.98 µM | Ki [16] 7.94 µM | Ki [17] 39.8 µM | Ki [18] 10 µM | Ki [19] 12.6 µM | Ki (Focal adhesion kinase 1) 25.1 µM | Ki [20] 50.1 µM | Ki [21] 2.51 µM | Ki [22] 0.126 µM | Ki [23] 31.6 µM | Ki [24] 0.0631 µM | Ki [25] 3.98 µM | Ki (Aurora kinase A) 15.8 µM | Ki [26] 63.1 µM | Ki [27] 7.94 µM | Ki [28] 31.6 µM | Ki [29] 63.1 µM | Ki [30] 63.1 µM | Ki [31] 0.794 µM | Ki [32] 0.251 µM | Ki [33] 79.4 µM | Ki [34] 39.8 µM | Ki [35] 79.4 µM | Ki [36] 25.1 µM | Ki [37] 7.94 µM | Ki [38] 2.51 µM | Ki [39] 3.16 µM | Ki [40] 0.126 µM | Ki (Activated CDC42 kinase 1) 50.1 µM | Ki [41] 10 µM | Ki [42] 2 µM | Ki [43] 0.0251 µM | Ki [44] 0.398 µM | Ki [45] 3.98 µM | Ki (Aurora kinase B) 10 µM | Ki [46] 12.6 µM | Ki [47] 20 µM | Ki [48] 31.6 µM | Ki [49] 5.01 µM

CC(C)/N=c1\cc2n(-c3ccc(Cl)cc3)c3ccccc3nc-2cc1Nc1ccc(Cl)cc1 [CLOFAZIMINE]
active: AC50 (INS1) 2.06 µM | EC50 (Streptokinase A) 2.28 µM | CC50 [50] 2.2 µM | CC50 [51] 10.2 µM | EC50 (Streptococcus) 36.9 µM | CC50 [52] 4.7 µM | EC50 [53] 1.86 µM
